Values of other authors in US11382865B2, “Pharmaceutical preparation and method for its manufacture” (BAYER ANIMAL HEALTH GMBH, priority 2016, dated 2022).

How the values were obtained:
[1] = test system: parasitic worms (helminths); settings: veterinary parasiticide

Compound: CO/N=C1\C[C@]2(C[C@@H]3C[C@@H](C/C=C(\C)C[C@@H](C)/C=C/C=C4\CO[C@@H]5[C@H](O)C(C)=C[C@@H](C(=O)O3)[C@]45O)O2)O[C@H](/C(C)=C/C(C)C)[C@H]1C [Moxidectin]
- Solubility in organic solvents (organic solvents): readily soluble
- Solubility in water (water): practically insoluble
- Dose at which active [1]: < 25 μg/kg body weight
